The source of these data is ChEMBL document CHEMBL6096721, “Discovery of Selenium-Containing Derivatives as Potent and Orally Bioavailable GLP-1R Agonists” (J Med Chem, 2025).

The EC50 is the concentration needed to bring the measured effect to its halfway point. By MRT last is commonly meant the average time that molecules of a dose stay in the body. The term clearance denotes a measure of how efficiently the substance is removed, as volume per time. Low values mean inefficient removal, high ones efficient removal. One may read the bioavailability as dose-corrected exposure relative to a reference, in per cent. One may read the Emax as the maximal effect, on the per cent scale that the assay sets. By Cmax is commonly meant the peak of the concentration-time curve. The half-life is the time in which the quantity being followed falls by half. A low value points to fast loss. Broadly, the Tmax is the time from dosing to the highest level. In general, AUC(0-t) refers to exposure summed from dosing to a finite time, without extrapolation to infinity. Low values mean low exposure, high ones high exposure.

For data set [1], the target named is T1, Glucagon-like peptide 1 receptor (Homo sapiens, UniProt P43220). The data set is described as follows: Agonist activity at human GLP-1R expressed in HEK293 cells assessed as cAMP accumulation incubated for 30 mins by LANCE ultra cAMP assay. Type of data set: functional, cell-based. In general terms: Cyclic AMP is a second messenger, typically raised through Gs and lowered through Gi signalling.

Data set [2] can be described thus: MRT (0 to t) in male ICR mouse at 10 mg/kg, po measured after 24 hrs by LC-MS/MS analysis. In kind it is ADME, organism-based. The following applies: in vivo.
The nature of data set [3]: Clearance in male ICR mouse at 2 mg/kg, iv measured after 24 hrs by LC-MS/MS analysis. In kind it is ADME, organism-based. The following applies: in vivo.
The nature of data set [4]: Oral bioavailability in male ICR mouse at 10 mg/kg measured after 24 hrs by LC-MS/MS analysis. Type of data set: ADME, organism-based. The following applies: in vivo.
The target of data set [5] is T1, Glucagon-like peptide 1 receptor. The data set is described as follows: Partial agonist activity at LgBit-tagged GLP-1R (unknown origin) transfected in HEK293 cells co-transfected with Smbit-tagged beta-arrestin-1 assessed as beta-arrestin recruitment by measuring maximal efficacy incubated for 5 mins by envision microplate reader analysis relative to control. Type of data set: functional, cell-based. On the technique in general: Recruitment of arrestin is a read-out of receptor activation apart from second messengers.

Data set [6] can be described thus: Apparent volume of distribution in male ICR mouse at 2 mg/kg, iv measured after 24 hrs by LC-MS/MS analysis. In kind it is ADME, organism-based. The following applies: in vivo, read-out: Vz.
Data set [7] can be described thus: Cmax in male ICR mouse at 2 mg/kg, iv measured after 24 hrs by LC-MS/MS analysis. In kind it is ADME, organism-based. The following applies: in vivo.
Data set [8] can be described thus: Half-life in male ICR mouse at 2 mg/kg, iv measured after 24 hrs by LC-MS/MS analysis. The following applies: in vivo. In kind it is ADME, organism-based.
The nature of data set [9]: Tmax in male ICR mouse at 10 mg/kg, po measured after 24 hrs by LC-MS/MS analysis. In kind it is ADME, organism-based. The following applies: in vivo.
Data set [10] is described as follows: MRT (0 to t) in male ICR mouse at 2 mg/kg, iv measured after 24 hrs by LC-MS/MS analysis. The following applies: in vivo. Type of data set: ADME, organism-based.
The nature of data set [11]: AUC (0 to t) in male ICR mouse at 2 mg/kg, iv measured after 24 hrs by LC-MS/MS analysis. The following applies: in vivo. Type of data set: ADME, organism-based.
Data set [12] deals with T1, Glucagon-like peptide 1 receptor. The data set is described as follows: Partial agonist activity at LgBit-tagged GLP-1R (unknown origin) transfected in HEK293 cells co-transfected with Smbit-tagged beta-arrestin-1 assessed as beta-arrestin recruitment incubated for 5 mins by envision microplate reader analysis. In kind it is functional, cell-based.
A short description of data set [13]: Cmax in male ICR mouse at 10 mg/kg, po measured after 24 hrs by LC-MS/MS analysis. In kind it is ADME, organism-based. The following applies: in vivo.
A short description of data set [14]: Half-life in male ICR mouse at 10 mg/kg, po measured after 24 hrs by LC-MS/MS analysis. In kind it is ADME, organism-based. The following applies: in vivo.
The nature of data set [15]: AUC (0 to t) in male ICR mouse at 10 mg/kg, po measured after 24 hrs by LC-MS/MS analysis. Type of data set: ADME, organism-based. The following applies: in vivo.
A short description of data set [16]: Oral bioavailability in male rat at 5 mg/kg. Type of data set: ADME, organism-based. The following applies: in vivo.
The nature of data set [17]: Half-life in male rat at 1 mg/kg, iv. The following applies: in vivo. In kind it is ADME, organism-based.

T1 sequence (P43220 whole entry): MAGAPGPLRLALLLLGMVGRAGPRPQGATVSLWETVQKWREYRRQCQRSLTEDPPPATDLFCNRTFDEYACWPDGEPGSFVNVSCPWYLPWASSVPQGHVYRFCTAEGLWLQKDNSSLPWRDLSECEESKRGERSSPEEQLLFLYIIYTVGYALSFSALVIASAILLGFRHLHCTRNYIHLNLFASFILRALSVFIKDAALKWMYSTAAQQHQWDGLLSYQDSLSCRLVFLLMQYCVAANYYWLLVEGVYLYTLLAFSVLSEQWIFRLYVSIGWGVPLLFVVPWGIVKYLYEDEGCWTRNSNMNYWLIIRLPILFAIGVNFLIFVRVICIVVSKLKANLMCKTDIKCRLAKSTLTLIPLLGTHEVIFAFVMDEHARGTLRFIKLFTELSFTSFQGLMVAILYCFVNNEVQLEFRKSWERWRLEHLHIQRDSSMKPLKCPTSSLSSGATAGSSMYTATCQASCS

`CC(C)[C@H](NCc1nc2ccc(C(=O)O)cc2n1C[C@@H]1CCO1)C(=O)Nc1cccc([Se]Cc2ccc(C#N)cc2F)n1`: in data set [1], the EC50 is greater than 200 µM.

Take `COc1cc(C#N)ccc1C[Se]c1cccc(N2C=NN(Cc3nc4c(F)cc(C(=O)O)cc4n3C[C@@H]3CCO3)CC2)n1`: the figures for the MRT last at 24 h in [2] and in data set [10] were 2.88 h and 0.4 h, respectively. For the same molecule, the clearance in data set [3] stood at 10.3 mL/min/kg. Further, in data set [4], the bioavailability amounted to 3.38%. Also, in data set [5], the Emax was 12%. Moreover, the Vd in data set [6] worked out at 4.25 L/kg. In addition, the Cmax came out at 13400 ng/mL in [7] and 324 ng/mL in [13]. Besides, the results for the half-life in data set [8] and in [14] were 4.52 h and 7.02 h, respectively. In data set [9], the Tmax amounted to 0.5 h. Besides, the AUC(0-t) at 24 h in data set [11] amounted to 3260 ng·h/mL; in [15], 537 ng·h/mL. Also, the EC50 in data set [12] was greater than 200 µM.

`N#Cc1ccc(C[Se]c2cccc(C3CCN(Cc4nc5ccc(C(=O)O)cc5n4C[C@@H]4CCO4)CC3)n2)c(F)c1`: in [16], the bioavailability turned out to be 23.4%. For the same molecule, the half-life in data set [17] was 0.47 h.

In the case of `CC(C)[C@@H](NCc1nc2ccc(C(=O)O)cc2n1C[C@@H]1CCO1)C(=O)Nc1cccc([Se]Cc2ccc(C#N)cc2F)n1`, in data set [1], the EC50 is greater than 200 µM.
